The test system of one data set is HCT-116 cell line. In words: MTT anti-proliferative assay. Type of data set: cell-based. To be noted: Homo sapiens, 48 h of incubation, mean ± SD of three experiments. Here is the method:
(§1) A549 (non-small cell lung cancer cell line) and HCT-116 (human colon cancer cell line), were obtained from American Type Culture Collection (Manassas, VA, USA). The cells were maintained in Dulbecco’s Modified Eagle’s Medium (DMEM) (Sigma-Aldrich, St. Louis, MO), and supplemented with 10% heat-inactivated FBS (Hyclone), 10 μg/mL of insulin (Manufacturer, Sigma, St. Louis, MO, USA), and 1% penicillin-streptomycin. MTT assay[29] was adopted to assess the in vitro antitumor activity of the newly synthesized pyridines 5a–l according to the reported procedures, using Doxorubicin as a standard treatment. Experimental conditions were tested using three replicates (three wells of the 96-well plate per experimental condition) and all experiments were carried out in triplicates. IC50 values were calculated by the use of the equation for Boltzman sigmoidal concentration–response curve using the nonlinear regression fitting models by Graph Pad, Prism version 5 (GraphPad Software Inc., La Jolla, CA).
(§2) All newly synthesized pyridines 5a–l were examined for their anti-proliferative activity towards two cancer cell lines: non-small cell lung cancer A549 cell line and colon cancer HCT-116 cell line. The MTT colorimetric assay was adopted to assess the anti-proliferative activity as described by Mosmann[29]. Doxorubicin was used as a control in this assay.
(In general: Tetrazolium assays rely on reduction of a dye to a coloured formazan, in cell work by metabolically active cells.)

The next data set has as its system A549 cell line. The data set can be described thus: MTT anti-proliferative assay. To be noted: Homo sapiens, 48 h of incubation, mean ± SD of three experiments. The data set is classed as cell-based. Here is the method: as §1, §2
For the next data set, the system named is WI-38 cell line. The data set can be described thus: MTT cytotoxicity towards non-tumorigenic cells. The data set is classed as cell-based, human. To be noted: for IC50: WI-38, MTT, non-tumorigenic human lung fibroblast, mean ± SD of three experiments; for S. I. WI-38/A549: selectivity index, IC50 WI-38 / IC50 A549. As to the method:
The cytotoxic activity of all synthesized pyridines 5a–l were assessed against non-tumorigenic human lung fibroblast WI-38 cell line to investigate their safety, using the MTT colorimetric assay.

In general, IC50 refers to the point on the concentration scale where inhibition reaches its midpoint. A low value points to inhibition by little substance. By melting point is commonly meant the temperature, or range, at which the solid turns liquid.

With `Cc1nc(-c2ccc(F)cc2)ccc1NC(=O)Nc1cc(C(F)(F)F)cc(C(F)(F)F)c1` [Compound 5b, 1-(3,5-Bis(trifluoromethyl)phenyl)-3-(6-(4-fluorophenyl)-2-methylpyridin-3-yl)urea], the melting point was in the range of 235 to 237 °C. Besides, the concentration for half-maximal inhibition (IC50) with HCT-116 cell line is 16 ± 1.52 µM. Further, in the data set with A549 cell line, half-maximal inhibition (IC50) required 24.1 ± 1.78 µM. In addition, in the data set with WI-38 cell line, the IC50 was 151 ± 8.12 µM and the “S. I. WI-38/A549” value is 6.3.
As for `Cc1nc(-c2cccs2)ccc1NC(=O)Nc1ccc2c(c1)OCO2` [Compound 5k, 1-(Benzo[d][1, 3]dioxol-5-yl)-3-(2-methyl-6-(thiophen-2-yl)pyridin-3-yl)urea], the melting point fell in the range of 239 to 241 °C. In the data set with HCT-116 cell line, this molecule registered an IC50 of 16.4 ± 1.3 µM. Moreover, in the data set on A549 cell line, the IC50 came to 19.2 ± 2.05 µM. Moreover, in the data set on WI-38 cell line, the half-maximal inhibitory concentration (IC50) was 139 ± 10.4 µM and the “S. I. WI-38/A549” value came out at 7.2.
Consider `COc1cccc2c1C(=O)c1c(O)c3c(c(O)c1C2=O)C[C@@](O)(C(=O)CO)C[C@@H]3O[C@H]1C[C@H](N)[C@H](O)[C@H](C)O1` [Doxorubicin, reference compound], for which the IC50 with HCT-116 cell line is 3.1 ± 0.22 µM; with A549 cell line it was 2.93 ± 0.28 µM.
